Data taken from patent publication US6706663B2, “Herbicidal 3-heterocyclic substituted benzisothiazole and benzisoxazole compounds” (Wyeth, priority 2000, dated 2004).

Tests used:
[1] = test system: MOOVA (Monochoria vaginalis); assay: Flooded paddy, preemergence weed control; assay type: in vivo, Presl.; details: rated 3-4 weeks after treatment, 0-9 rating scale
In short: (§1)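 Flooded silt loam pots, seeds in upper 0.5 cm, water held 1.5–3 cm deep; greenhouse; visual 0-9 score vs control.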

[2] = test system: CYPIR (Cyperus iria); assay: Flooded paddy, preemergence weed control; assay type: in vivo; details: rated 3-4 weeks after treatment, 0-9 rating scale
In short: as §1

[3] = test system: CYPSE (Cyperus serotinus); assay: Flooded paddy, preemergence weed control; assay type: in vivo, Rottb.; details: rated 3-4 weeks after treatment, 0-9 rating scale
In short: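 Seeds or propagules were planted 0.5 cm deep in silt loam and flooded to 1.5–3 cm. Compounds in 50/50 v/v aqueous/acetone were pipetted into the flood water at about 0.0080 to 0.1250 kg/ha. After 3–4 weeks in the greenhouse, effect was rated visually on a 0–9 scale versus untreated control.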

[4] = test system: ECHCG (Echinochloa crus-galli); assay: Postemergence herbicidal evaluation; assay type: in vivo, (L.) Beau
In short: (§2)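 Seedlings grown for about two weeks were sprayed postemergence and then kept under standard greenhouse care. Injury was rated visually 4–5 weeks after treatment on a 0–9 scale against untreated controls, and ratings from repeat tests were averaged.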

[5] = test system: SETVI (Setaria viridis); assay: Postemergence herbicidal evaluation; assay type: in vivo, (L.) Beau
In short: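 First, seedlings are raised in flats for about two weeks. Next, compound dispersed in 50/50 acetone/water with 0.5% TWEEN 20 is sprayed at 40 psi to deliver about 0.0040–1.000 kg/ha. Plants are then maintained in the greenhouse and rated 0-9 after four to five weeks.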

[6] = test system: ABUTH (Abutilon theophrasti); assay: Preemergence herbicidal evaluation; assay type: in vivo, Medic.; details: rated 4-5 weeks after treatment
[7] = test system: ZEAMX (Corn, Field); assay: Preemergence herbicidal evaluation; assay type: in vivo, Zea mays, L.; details: rated 4-5 weeks after treatment
[8] = test system: TRZAWR (Wheat, Winter, cv Riband); assay: Postemergence herbicidal evaluation; assay type: in vivo, Triticum aestivum
In short: as §2

[9] = test system: ORYSAT (Rice, Tebonnet); assay: Flooded paddy, post-transplant rice tolerance; assay type: in vivo, Oryza sativa, (L.) Tebonnet; details: flooded paddy, post-transplant rice, rated 3-4 weeks after treatment, 0-9 rating scale
In short: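 Ten-day-old seedlings, 2/pot, silt loam; flood kept 1.5–3 cm over soil; herbicide applied post-transplant; greenhouse; score 0–9 visual vs control.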

[10] = test system: AMBEL (Ambrosia artemisifolia); assay: Preemergence herbicidal evaluation; assay type: in vivo, L.; details: rated 4-5 weeks after treatment
In short: (§3)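 Greenhouse preemergence test: freshly planted cups were sprayed once with an aqueous acetone solution of compound. Injury was judged visually on a 0–9 scale relative to a control, four to five weeks later.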

[11] = test system: CHEAL (Chenopodium album); assay: Preemergence herbicidal evaluation; assay type: in vivo, L.; details: rated 4-5 weeks after treatment
In short: as §3

[12] = test system: CASOB (Cassia obtusifolia); assay: Preemergence herbicidal evaluation; assay type: in vivo, L.; details: rated 4-5 weeks after treatment
In short: as §3

[13] = test system: SAGPY (Sagittaria pygmaea); assay: Flooded paddy, preemergence weed control; assay type: in vivo, L.; details: rated 3-4 weeks after treatment, 0-9 rating scale
In short: as §1

[14] = test system: IPOHE (Ipomoea hederacea); assay: Preemergence herbicidal evaluation; assay type: in vivo, (L.) Jacq.; details: rated 4-5 weeks after treatment
[15] = test system: GLXMAW (Soybean, Williams); assay: Preemergence herbicidal evaluation; assay type: in vivo, Glycine max, (L.) Merr. cv Williams; details: rated 4-5 weeks after treatment
[16] = test system: ECHORC (Echinochloa oryzoides); assay: Flooded paddy, preemergence weed control; assay type: in vivo, Echinochloa oryzoides (Ard.) Fritsch.; details: rated 3-4 weeks after treatment, 0-9 rating scale
In short: as §1

Cn1c(C(F)(F)F)cc(=O)n(-c2ccc3snc(C4OCCO4)c3c2)c1=O [Compound 45, 3-[3-(1,3-dioxolan-2-yl)-1,2-benzisothiazol-5-yl]-1-methyl-6-(trifluoromethyl)uracil]
herbicidal rating, MOOVA ([1]; rate 0.0080 kg/ha): 4.5 | herbicidal rating, MOOVA ([1]; rate 0.0320 kg/ha): 9.0 | herbicidal rating, MOOVA ([1]; rate 0.1250 kg/ha): 9.0 | herbicidal rating, CYPIR ([2]; rate 0.0080 kg/ha): 9.0 | herbicidal rating, CYPIR ([2]; rate 0.0320 kg/ha): 9.0 | herbicidal rating, CYPIR ([2]; rate 0.1250 kg/ha): 9.0 | herbicidal rating, CYPSE ([3]; rate 0.0080 kg/ha): 9.0 | herbicidal rating, CYPSE ([3]; rate 0.0320 kg/ha): 9.0 | herbicidal rating, CYPSE ([3]; rate 0.1250 kg/ha): 9.0 | Postemergence herbicidal rating, ECHCG ([4]; rate 0.0320 kg/ha): 2.8 | Postemergence herbicidal rating, ECHCG ([4]; rate 0.0620 kg/ha): 4.0 | Postemergence herbicidal rating, SETVI ([5]; rate 0.0320 kg/ha): 6.3 | Postemergence herbicidal rating, SETVI ([5]; rate 0.0620 kg/ha): 9.0 | Preemergence herbicidal rating ABUTH ([6]; Rate 0.0620 kg/ha): 9.0 | Preemergence herbicidal rating ABUTH ([6]; Rate 0.1250 kg/ha): 9.0 | Preemergence herbicidal rating ABUTH ([6]; Rate 0.2500 kg/ha): 9.0 | Preemergence herbicidal rating ZEAMX ([7]; Rate 0.0620 kg/ha): 8.8 | Preemergence herbicidal rating ZEAMX ([7]; Rate 0.1250 kg/ha): 9.0 | Preemergence herbicidal rating ZEAMX ([7]; Rate 0.2500 kg/ha): 8.7 | Postemergence herbicidal rating, TRZAWR ([8]; rate 0.0320 kg/ha): 4.4 | Postemergence herbicidal rating, TRZAWR ([8]; rate 0.0620 kg/ha): 5.0 | herbicidal rating, ORYSAT (rice tolerance) ([9]; rate 0.0080 kg/ha): 8.5 | herbicidal rating, ORYSAT (rice tolerance) ([9]; rate 0.0320 kg/ha): 9.0 | herbicidal rating, ORYSAT (rice tolerance) ([9]; rate 0.1250 kg/ha): 9.0 | Preemergence herbicidal rating AMBEL ([10]; Rate 0.0620 kg/ha): 9.0 | Preemergence herbicidal rating AMBEL ([10]; Rate 0.1250 kg/ha): 9.0 | Preemergence herbicidal rating AMBEL ([10]; Rate 0.2500 kg/ha): 9.0 | Preemergence herbicidal rating CHEAL ([11]; Rate 0.0620 kg/ha): 9.0 | Preemergence herbicidal rating CHEAL ([11]; Rate 0.1250 kg/ha): 9.0 | Preemergence herbicidal rating CHEAL ([11]; Rate 0.2500 kg/ha): 9.0 | Preemergence herbicidal rating CASOB ([12]; Rate 0.0620 kg/ha): 8.7 | Preemergence herbicidal rating CASOB ([12]; Rate 0.1250 kg/ha): 9.0 | Preemergence herbicidal rating CASOB ([12]; Rate 0.2500 kg/ha): 9.0 | herbicidal rating, SAGPY ([13]; rate 0.0080 kg/ha): 7.0 | herbicidal rating, SAGPY ([13]; rate 0.0320 kg/ha): 8.0 | herbicidal rating, SAGPY ([13]; rate 0.1250 kg/ha): 9.0 | Preemergence herbicidal rating IPOHE ([14]; Rate 0.0620 kg/ha): 9.0 | Preemergence herbicidal rating IPOHE ([14]; Rate 0.1250 kg/ha): 9.0 | Preemergence herbicidal rating IPOHE ([14]; Rate 0.2500 kg/ha): 9.0 | Preemergence herbicidal rating GLXMAW ([15]; Rate 0.0620 kg/ha): 9.0 | Preemergence herbicidal rating GLXMAW ([15]; Rate 0.1250 kg/ha): 9.0 | Preemergence herbicidal rating GLXMAW ([15]; Rate 0.2500 kg/ha): 9.0 | herbicidal rating, ECHORC ([16]; rate 0.0080 kg/ha): 3.5 | herbicidal rating, ECHORC ([16]; rate 0.0320 kg/ha): 7.3 | herbicidal rating, ECHORC ([16]; rate 0.1250 kg/ha): 9.0

Cc1cccnc1-c1nsc2cc(F)c(N3C(=O)C4=C(CCCC4)C3=O)cc12 [Compound 46, N-[6-fluoro-3-(3-methyl-2-pyridyl)-1,2-benzisothiazol-5-yl]-1-cyclohexene-1,2-dicarboximide]
herbicidal rating, MOOVA ([1]; rate 0.0320 kg/ha): 7.0 | herbicidal rating, MOOVA ([1]; rate 0.1250 kg/ha): 7.0 | herbicidal rating, CYPIR ([2]; rate 0.0320 kg/ha): 1.0 | herbicidal rating, CYPIR ([2]; rate 0.1250 kg/ha): 3.0 | herbicidal rating, CYPSE ([3]; rate 0.1250 kg/ha): 0.0 | Postemergence herbicidal rating, ECHCG ([4]; rate 0.0320 kg/ha): 2.0 | Postemergence herbicidal rating, ECHCG ([4]; rate 0.0620 kg/ha): 2.0 | Postemergence herbicidal rating, ECHCG ([4]; rate 0.1250 kg/ha): 4.0 | Postemergence herbicidal rating, SETVI ([5]; rate 0.0320 kg/ha): 3.0 | Postemergence herbicidal rating, SETVI ([5]; rate 0.0620 kg/ha): 4.0 | Postemergence herbicidal rating, SETVI ([5]; rate 0.1250 kg/ha): 9.0 | Preemergence herbicidal rating ABUTH ([6]; Rate 0.0620 kg/ha): 5.0 | Preemergence herbicidal rating ABUTH ([6]; Rate 0.1250 kg/ha): 4.0 | Preemergence herbicidal rating ABUTH ([6]; Rate 0.2500 kg/ha): 9.0 | Preemergence herbicidal rating ZEAMX ([7]; Rate 0.0620 kg/ha): 0.0 | Preemergence herbicidal rating ZEAMX ([7]; Rate 0.1250 kg/ha): 0.0 | Preemergence herbicidal rating ZEAMX ([7]; Rate 0.2500 kg/ha): 0.0 | Postemergence herbicidal rating, TRZAWR ([8]; rate 0.0320 kg/ha): 4.0 | Postemergence herbicidal rating, TRZAWR ([8]; rate 0.0620 kg/ha): 4.5 | Postemergence herbicidal rating, TRZAWR ([8]; rate 0.1250 kg/ha): 5.0 | herbicidal rating, ORYSAT (rice tolerance) ([9]; rate 0.0320 kg/ha): 2.0 | herbicidal rating, ORYSAT (rice tolerance) ([9]; rate 0.1250 kg/ha): 3.0 | Preemergence herbicidal rating AMBEL ([10]; Rate 0.0620 kg/ha): 1.0 | Preemergence herbicidal rating AMBEL ([10]; Rate 0.1250 kg/ha): 6.0 | Preemergence herbicidal rating AMBEL ([10]; Rate 0.2500 kg/ha): 9.0 | Preemergence herbicidal rating CHEAL ([11]; Rate 0.0620 kg/ha): 7.0 | Preemergence herbicidal rating CHEAL ([11]; Rate 0.1250 kg/ha): 9.0 | Preemergence herbicidal rating CHEAL ([11]; Rate 0.2500 kg/ha): 9.0 | Preemergence herbicidal rating CASOB ([12]; Rate 0.0620 kg/ha): 1.0 | Preemergence herbicidal rating CASOB ([12]; Rate 0.1250 kg/ha): 1.0 | Preemergence herbicidal rating CASOB ([12]; Rate 0.2500 kg/ha): 3.0 | herbicidal rating, SAGPY ([13]; rate 0.0320 kg/ha): 0.0 | herbicidal rating, SAGPY ([13]; rate 0.1250 kg/ha): 2.0 | Preemergence herbicidal rating IPOHE ([14]; Rate 0.0620 kg/ha): 0.0 | Preemergence herbicidal rating IPOHE ([14]; Rate 0.1250 kg/ha): 2.0 | Preemergence herbicidal rating IPOHE ([14]; Rate 0.2500 kg/ha): 9.0 | Preemergence herbicidal rating GLXMAW ([15]; Rate 0.0620 kg/ha): 0.0 | Preemergence herbicidal rating GLXMAW ([15]; Rate 0.1250 kg/ha): 1.0 | Preemergence herbicidal rating GLXMAW ([15]; Rate 0.2500 kg/ha): 2.0 | herbicidal rating, ECHORC ([16]; rate 0.0320 kg/ha): 5.0 | herbicidal rating, ECHORC ([16]; rate 0.1250 kg/ha): 7.0
